This is an account of results in patent publication US7198931B2, “Phosphorylated glyoxalase I and its use” (Vlaams Interuniversitair Instituut voor Biotechnologie VZW, priority 2001, dated 2007).

What all share (assay type): cell-based
In one assay the test system is L929 cells. The procedure:
Murine TNF (mTNF) was obtained from Roche Diagnostics and was used at 1000 IU/ml unless indicated otherwise. Propidium iodide (PI) and cycloheximide (CHX) (all from Sigma) were used at concentrations of 30 μM and 50 μg/ml, respectively.
Cell death in L929 was induced by addition of TNF to the cell suspension. Cell death was measured by quantifying PI-positive cells by FACS (FACSCalibur, Becton Dickinson, San Jose, Calif.). The PI dye was excited with an argon-ion laser at 488 nm; PI fluorescence was measured above 590 nm using a long-pass filter. Routinely, 3,000 cells were analyzed. Cell death is expressed as the percentage of PI-positive cells in the total cell population.

The next assay addresses T1, glyoxalase I (Mus musculus, UniProt Q9CPU0).
T1 construct: TNF-induced phosphorylation of endogeneous glyoxalase I in L929 cells; endogenous in cells; host or cells: L929 cells
T1 sequence (Q9CPU0 2-184 limits assumed): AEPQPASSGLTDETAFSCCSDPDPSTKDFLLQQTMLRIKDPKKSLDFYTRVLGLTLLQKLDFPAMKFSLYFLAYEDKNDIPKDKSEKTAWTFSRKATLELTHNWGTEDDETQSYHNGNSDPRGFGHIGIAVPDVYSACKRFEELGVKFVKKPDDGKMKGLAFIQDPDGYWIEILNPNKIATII
In words: TNF-induced phosphorylation of glyoxalase I (32P labeling, 2-D gels, Western blot with anti-human glyoxalase I antibody). The procedure:
L929 cells were plated 48 hours prior to the experiment. ^32P labeling was carried out as described in (Guy et al., 1992). TNF treatments (1000 IU/ml, 1.5 hours) were done in the presence of cycloheximide (CHX), to synchronize cell death. To simplify the 2-D phosphoprotein pattern and subsequent computer-assisted analysis, we prepared two subcellular protein fractions. The cytosolic protein fraction, containing soluble cytoplasmic molecules and molecules derived from single-membrane organelles, was obtained as the supernatant from digitonin (0.03%)-permeabilized cells. After rinsing once with excess PBS buffer, the remaining cell fraction was lysed in a CHAPS (2%)-containing buffer as described in (Guy et al., 1992). This lysate was then centrifuged (20,000 g) and the supernatant was used as the organelle fraction; it is enriched for mitochondrial and cytoskeleton-derived proteins.
Isoelectric focusing. […] Protein samples were precipitated with ethanol and redissolved in lysis buffer.
SDS-PAGE. The second dimension (SDS-PAGE) was run on large vertical gels (12.5% acrylamide, Biorad).
Proteins were separated by SDS-PAGE (12.5%) and transferred to a PVDF membrane (Hybond-P, Amersham Pharmacia Biotech). […]
In general terms: In western blotting, separated proteins are transferred to a membrane and probed.

The subject of another assay is specific MG-derived AGE. In words: Detection of the specific MG-derived AGE by Western blot with mAb6B, densitometry of the ECL signal.
Where [1] appears, read: L929 cells pretreated (BBGD 20 μM; H89 5 μM), after 1.5 hours of TNF treatment.
The mark [2] stands for this setting: L929 cells pretreated (BBGD 20 μM; H89 5 μM), after 2.5 hours of TNF treatment.

Each structure is given as a SMILES string. Like-named read-outs stand apart in the source and are kept apart here. Where only a bound is given, the exact number is not on record here.

Protocol for specific MG-derived AGE: L929 cells were seeded 48 hours prior to the experiment. TNF incubations (1000 U/ml) were done in the presence of CHX to synchronize cell death. After TNF incubations (1.5 hours or 2.5 hours), the cells were rinsed three times with ice-cold PBS buffer and cell lysates were prepared in a CHAPS-containing cytosol extraction buffer (Guy et al., 1992). […] To use the antibody sparingly, SDS-PAGE gels were only run over a distance of 5 cm.

For the molecule `O=S(=O)(NCCNC/C=C/c1ccc(Br)cc1)c1cccc2cnccc12` [H89], the “effect on TNF-induced cell death” value with L929 cells (pretreatment 2 hours, 1 μM) was “inhibitory effect”. For the same molecule, the “inhibition of TNF-induced cell death” value in the assay on L929 cells (pretreatment 2 hours, 5 μM) is given as above 50%. Besides, the “effect on induction of the more acidic (phosphorylated) isoform of glyoxalase I by TNF” value on glyoxalase I (L929 cells, pretreatment, 5 μM) was “completely abolished”. The “reduction of formation of the specific MG-derived AGE” value (“reduction” below) stood at 70% in the assay with specific MG-derived AGE (setting [1]) and 20% with specific MG-derived AGE (setting [2]).

`O=CC[C@@H](O)[C@H](O)[C@H](O)CO` [2-deoxyglucose]: the “inhibition of TNF-induced cell death” value with L929 cells (2-deoxyglucose 2:1 ratio to glucose) is on record as 65%. In addition, in the assay on specific MG-derived AGE (TNF 1000 U/ml + CHX, 2.5 hours, 2-deoxyglucose 2:1 ratio to glucose, given with TNF), the “inhibition of formation of the specific MG-derived AGE” value worked out at 65%.

For `N=C(N)NN` [aminoguanidine], in the assay with L929 cells (16 hours TNF 20 U/ml, 400 μM), the “inhibition of TNF-induced cell death” value came to 15%. Further, the “maximum inhibition of TNF-induced cell death” value with L929 cells (16 hours TNF 20 U/ml, 600 or 800 μM) is 25%.

`CC(=O)C=O` [MG, methylglyoxal]: the “effect of exogeneously added MG on TNF-induced cell death” value in the assay with L929 cells (5.5 hours incubation with TNF and methylglyoxal, concentration-dependent) was “strongly synergistic”.

On to `NC(CCC(=O)NC(CSCc1ccc(Br)cc1)C(=O)NCC(=O)OC1CCCC1)C(=O)OC1CCCC1` (stereo not shown) [BBGD, s-p-bromobenzylglutathione cyclopentyl diester], for which the “increase in TNF-induced cell death (synergistic effect)” value in the assay on L929 cells (inhibitor and TNF added at the same time, 20 μM) was 50%. Further, in the assay with L929 cells (preincubation 1 hour 10 minutes with inhibitor, 20 μM), the “inhibition of TNF-induced cell death” value stood at 60%. Besides, the “effect on TNF-induced phosphorylation of GLO1” value at glyoxalase I (cells preincubated with the inhibitor for 1 hour 10 minutes, 2-D gels pH 3–10) was “inhibits the TNF-induced phosphorylation of GLO1”. For the same molecule, the “reduction” value worked out at 50% in the assay on specific MG-derived AGE (setting [1]) and 10% in the assay on specific MG-derived AGE (setting [2]).

For `COc1ccc(O)c(C(C)(C)C)c1` [BHA, butylated hydroxyanisole], the “reduction” value with specific MG-derived AGE (TNF 1000 U/ml + CHX, 2.5 hours, BHA 100 μM given 0.5 hour after TNF) turned out to be 65%.
